Patent publication US5420348A, “Urea derivatives and salts thereof” (Yamanouchi Pharmaceutical Co., Ltd., priority 1990, dated 1995)

Key:
[1] = target: acyl-CoA cholesterol acyltransferase (ACAT); experiment: Inhibitory action against acyl-CoA cholesterol acyltransferase (ACAT) activity in rabbit liver microsome; type: biochemical; settings: 36 μM [1-14C]oleoyl CoA, pH 7.4, 37° C., 10 minutes, read-out: ACAT Inhibiting Activity IC50 (50% Inhibition Concentration)
Protocol: i) ACAT enzyme inhibiting activity:
Inhibitory action against acyl-CoA cholesterol acyltransferase (ACAT) activity in rabbit liver microsome
The rabbit liver microsome was prepared as an enzyme fraction according to the method of Heider (J. G. Heider et al., J. of Lipid Res., Vol. 24, 1127-34 (1983)).
To the mixture of 0.154M phosphate buffer solution (pH 7.4), 2 mM dithiothreitol, 36 μM bovine serum albumin and 10-100 μg of microsome fraction was added liposome prepared by the method of Suckling (K. E. Suckling et al., FEBS Letters, Vol. 151, No. 111-116 (1983)) so that the proposition of liposome became 20% v/v. To the mixture was added 2% v/v of each concentration of test compound solution in dimethyl sulfoxide and the mixture was heated at 37° C. for 5 minutes. Then 36 μM oleoyl CoA containing 1^14 C-oleoyl CoA was added and the resultant mixture was heated at 37° C. for 10 minutes. The reaction was stopped by adding chloroform/methanol (=2/1). After stirring, cholesterol oleate extracted into the chloroform layer was separated by thin layer chromatography and the radioactivity was determined as ACAT activity.

[2] = test system: serum total cholesterol; experiment: Lipid-lowering activity in rats fed a diet containing 1.5% cholesterol and 0.5% bile acid; type: in vivo; settings: Rattus norvegicus; male Sprague-Dawley rats, 1.5% cholesterol/0.5% bile acid diet for 7 days, oral once a day during last 5 days, blood 2 hours after last administration; read-out: % Reduction in Serum Total Cholesterol ED50
Excerpt: ii) Lipid-lowering activity:
Two hours after the last administration, blood samples were collected under ether anesthesia for determination of serum total cholesterol level and HDL-cholesterol level.

Structure (SMILES)	IC50 [1] [nM]	ED50 [2] [mg/kg]
Cc1cc(C)c(NC(=O)N(Cc2cc3ccccc3c3ccccc23)C2CCCCCC2)c(C)c1 [Example 10, 1-Cycloheptyl-1-[(9-phenanthrenyl)methyl]-3-(2,4,6-trimethylphenyl)urea]	61	1.7
Cc1cc(C)c(NC(=O)N(Cc2ccc3c(c2)Cc2ccccc2-3)C2CCCCCC2)c(C)c1 [Example 1, 1-Cycloheptyl-1-[(2-fluorenyl)methyl]-3-(2,4,6-trimethylphenyl)urea]	73	3.8
